How the values were obtained:
[1] = target: T1, Recombinant human PRMT5: MEP50 protein (Homo sapiens, UniProt O14744); assay: Inhibitory activity against human PRMT5 enzymatic activity (HTRF quantification of SAH, +MTA); assay type: biochemical; settings: +1 µM MTA; histone H4 peptide substrate (1-21), SAM; 37°C 120 min
T1 construct: purchased active motif 31521
Method: • 1. Recombinant human PRMT5: MEP50 protein (active motif, 31521) • 2. EPIgeneous Methyltransferase kit (cisbio, 62SAHPEH) • 3. 96-well plate (Sangon Biotech, F610960-0010) • 4. 384-well white plate (Perkin Elmer, 6007290) • 5. 1 M Tris-HCl [pH 8.5] (Sangon Biotech, B548141) • 6. Histone H4 peptide substrates (1-21) (BPS bioscience, 52014) • 7. 5'-deoxy-5'-(methylthio)adenosine (Aladdin, D168979-25 mg) • 8. Tween-20 (Sangon Biotech, A100777-0500) • 9. DMSO (Sigma, D2650) • 10. Incubator (Shanghai Boxun Medical Biological Instrument Corp.) • 11. PHERAstar FS microplate reader (BMG Labtech)
PRMT5 can induce the transfer of a methyl group from S-adenosylmethionine (SAM) to a histone H4 peptide substrate (1-21), generating S-adenosylhomocysteine (SAH). In this experiment, the amount of SAH produced in the reaction is quantified using a Homogeneous Time-Resolved Fluorescence (HTRF) method to evaluate the inhibitory activity of compounds against PRMT5 enzymatic activity.
The sample diluent containing (or not containing) 1 µM 5 '-deoxy-5' - (methylthiyl) adenosine (MTA) was prepared using the EPIgeneous Diluent Buffer from the EPIgeneous Methyltransferase kit. With reference to the instructions, SAM and SAH standards were serially diluted and dispensed at 10 µL per well (in duplicate for each concentration). 2 µL of EPIgeneous Detection Buffer 1 was added to each well, and the plate was centrifuged, shaken to mix thoroughly, and placed at room temperature for 10 min. The SAH d2 Reagent was diluted 32-fold with EPIgeneous Detection Buffer 2, and 4 µL of the diluted SAH-d2 solution was added to each well. The plate was centrifuged and shaken for 2 min to mix thoroughly. The SAH Tb Cryptate Antibody was diluted 50-fold in EPIgeneous Detection Buffer 2. 4 µL of the diluted Tb Cryptate Antibody solution was added to each well, and the plate was centrifuged, shaken for 2 min to mix thoroughly, and left to stand at room temperature for 60 min, followed by reading on a PHERAstar FS microplate reader to obtain the 665/620 ratio. Plotting SAH concentration against the ratio to generate an x-y curve yields a corresponding calculation formula.
Reaction buffer (1×): 50 mM Tris-HCl [pH 8.5], 1 mM DTT, 0.005% Tween-20.
Compound preparation: a 20 mM solution of test compound in 100% DMSO was diluted in 100% DMSO to 1 mM as the highest concentration, and the solution at this concentration was then subjected to a 10-point, 3-fold serial dilution in 100% DMSO in a 96-well plate. Wells containing 100% DMSO served as the blank control. The above-described serially diluted compounds and the 100% DMSO were diluted 20-fold with the reaction buffer to prepare 5× compound solutions, which were mixed thoroughly for use.
The PRMT5:MEP50 was diluted in the reaction buffer to a final concentration of 12.5 nM. Then, 4 µL of the 12.5 nM PRMT5:MEP50 solution was added to each well of a 384-well plate. Wells containing 4 µL of the reaction buffer served as the negative control wells. 2 µL of the 5× compound solution was added to each well. For the negative control wells (no enzyme, no compound) and the positive control wells (no compound), 2 µL of 5% DMSO was added. The plate was sealed with a membrane, centrifuged, shaken for 2 min to mix thoroughly, and placed at room temperature for 20 min.
Preparation of substrate mixture solution: The substrate mixture solution containing 1.5 µM histone H4 peptide substrate (1-21) and 2.5 µM SAM, or 1.5 µM histone H4 peptide substrate (1-21), 2.5 µM SAM and 2.5 µM MTA was prepared in the reaction buffer.
The reaction was initiated by adding 4 µL of the substrate mixture solution (-/+ MTA) to each well. The plate was sealed with a membrane, centrifuged, shaken for 2 min to mix thoroughly, and incubated at 37°C for 120 min in a constant temperature incubator.
Detection: The detection was performed by using the EPIgeneous Methyltransferase kit. […]

HCT116 MTAP-/- cells = assay: HCT116 MTAP-/- cell proliferation assay (CellTiter-Glo, 10 days); assay type: cell-based; settings: Homo sapiens, HCT-116, 240 h, growth inhibition, CTG assay Day 10
Source text: • I. Experimental materials and instruments • 1. HCT116 cell line (Nanjing Kebai Biotechnology Co., Ltd., CBP60028) • 2. HCT116 MTAP-/- cell line (Nanjing Kebai Biotechnology Co., Ltd., CBP75002) • 3. DMSO (Sigma, D2650) • 4. McCoy's 5A medium (Gibco, 16600-082) • 5. Foetal bovine serum (FBS) (Gibco, 10091148) • 6. Phosphate buffered saline (DPBS) pH 7.4 (Gibco, 14190-144) • 7. Pen strep (PS) (Gibco, 15140-122) • 8. 0.25% Typsin-EDTA (1×) (Gibco, 25200-072) • 9. CellTiter-Glo® Luminescent Cell Viability Assay (Promega, G7572) • 10. 96-well round-bottom plate (JET, TCP002096) • 11. 96-well black clear bottom plate (Hangzhou Xinyou Biotechnology Co., Ltd., 060096) • 12. 1.2 mL 96-well deep well plate, clear, sterile, square-well, V-bottom (Titan, 02089063) • 13. 15-mL centrifuge tube (Titan) • 14. Biosafety cabinet (Thermo, 1300AII) • 15. Cell counter (Countstar, IC1000) • 16. Incubator (Thermo, I160) • 17. Centrifuge (Beckman coulter, Allegra X-12 centrifuge) • 18. PHERAstar FS microplate reader (BMG Labtech) • II. Experimental procedure • 1. Cell plating (Day 0) • a) The cell morphology was observed under a microscope to ensure confluence reached approximately 90%. • b) The cell supernatant was aspirated, the cells were washed once with PBS, and then the PBS was removed; and the cells were digested by adding an appropriate amount of trypsin, and left to stand at 37°C for 3 minutes. • c) The digestion was terminated by adding an equal volume of McCoy's 5A medium containing 10% FBS, and the cell suspension was collected and centrifuged at 300 g for 3 minutes; and the cells were resuspended in an appropriate amount of fresh medium. • d) The resuspended cell suspension was taken for counting. • e) The cell suspension was diluted to 1e4/mL using McCoy's 5A medium containing 10% FBS, and seeded at 50 µL per well, corresponding to 500 cells/well for HCT116 and 500 cells/well for HCT116 MTAP-/-. • f) The cell plate was placed in a 37°C, 5% carbon dioxide incubator and incubated overnight. • 2. Compound treatment (Day 1) • a) Each compound was serially diluted in DMSO to generate a 9-point concentration gradient (starting concentration: 10000 µM, 3-fold dilution; the highest concentration may be adjusted individually based on IC50 of different compounds); for example, in a 96-well round-bottom compound-dilution plate, 5 µL of the compound was sequentially diluted into 10 µL of DMSO. • b) Each concentration point of every compound was then diluted 250-fold into the corresponding volume of McCoy's 5A medium. • c) To each cell plate, 50 µL of the diluted compound solution as described above was added sequentially to the cell supernatant (50 µL/well). • d) The compound-treated cell plate was placed in a 37°C, 5% carbon dioxide incubator and incubated. • 3. Re-digestion, re-plating and compound treatment (Day 5) • a) After 5 days of compound treatment, the compound-containing medium was aspirated, and the cells were rinsed once with PBS (100 µL/well); and the PBS was removed immediately. • b) The cells were digested by adding 25 µL of trypsin and incubated at 37°C for 3 minutes, and then the digestion was terminated by adding 175 µL/well of McCoy's 5A medium containing 10% FBS. • c) The cells were mixed thoroughly using a pipette, and re-plated at 1 : 20; and specifically, 10 µL of the cell suspension was aspirated to a new 96-well plate (pre-filled with 40 µL of McCoy's 5A medium containing 10% FBS. • d) Compounds were prepared and added according to steps a) to c) in Section 2, with 50 µL added per well. • e) The compound-treated cell plate was placed in a 37°C, 5% carbon dioxide incubator and incubated. • 4. […]

[2] = Pharmacokinetic evaluation in Nu/Nu mice (plasma, LC-MS/MS); assay type: in vivo; settings: mouse, in vivo, po, i.g., 100 mg/kg
Method: Using Nu/Nu mice as the test animals, the plasma concentrations of the example compounds at different time points were determined by LC-MS/MS following oral gavage (i.g.) administration. The pharmacokinetic behaviours of the compounds of the present disclosure in Nu/Nu mice were investigated, and their pharmacokinetic profiles were evaluated.
Compound 1-p1, compound 2-p1, compound 8-p1 and comparative example 1.
A total of 36 female Nu/Nu mice (supplied by Vital River Laboratory Animal Technology Co., Ltd.) were randomly divided into 4 groups.
An appropriate amount of each test compound was weighed and dissolved in 5% DMSO+20% PEG400+70% (10% TPGS)+5% (1% HMPC K100LV) to prepare a 10 mg/mL colourless clear solution.
The administration dosage was 100 mg/kg, and the administration volume was 10 mL/kg.
Mice were not fasted. After oral gavage administration, blood (0.1 mL) was collected from the orbital cavity before administration, and at 0.25 h, 0.5 h, 1.0 h, 2.0 h, 4.0 h, 6.0 h, 8.0 h, 11.0 h and 24.0 h after administration. The blood was placed into EDTA-K2 anticoagulant tubes and centrifuged at 10000 rpm for 1 minute (4°C) to separate plasma. The plasma was separated within 1 h and stored at -20°C until analysis. The entire process from blood collection to centrifugation was performed in ice bath conditions.
Determination of test compound contents in plasma of Nu/Nu mice after administration of different compounds: To 20 µL of plasma samples from each time point in Nu/Nu mice, 200 µL of acetonitrile and 25 µL of verapamil (100 ng/mL) were added. The mixture was vortex-mixed for 5 minutes and centrifuged at 4000 rpm for 15 minutes. 90 µL of water and 90 µL of the supernatant were vortex-mixed for 5 minutes. 2 µL (for compound 1-p1), 2 µL (for compound 2-p1), 1 µL (for compound 8-p1), or 0.5 µL (for comparative example 1) of the supernatant was taken for LC-MS/MS analysis receptively.

T1 sequence (O14744 whole entry): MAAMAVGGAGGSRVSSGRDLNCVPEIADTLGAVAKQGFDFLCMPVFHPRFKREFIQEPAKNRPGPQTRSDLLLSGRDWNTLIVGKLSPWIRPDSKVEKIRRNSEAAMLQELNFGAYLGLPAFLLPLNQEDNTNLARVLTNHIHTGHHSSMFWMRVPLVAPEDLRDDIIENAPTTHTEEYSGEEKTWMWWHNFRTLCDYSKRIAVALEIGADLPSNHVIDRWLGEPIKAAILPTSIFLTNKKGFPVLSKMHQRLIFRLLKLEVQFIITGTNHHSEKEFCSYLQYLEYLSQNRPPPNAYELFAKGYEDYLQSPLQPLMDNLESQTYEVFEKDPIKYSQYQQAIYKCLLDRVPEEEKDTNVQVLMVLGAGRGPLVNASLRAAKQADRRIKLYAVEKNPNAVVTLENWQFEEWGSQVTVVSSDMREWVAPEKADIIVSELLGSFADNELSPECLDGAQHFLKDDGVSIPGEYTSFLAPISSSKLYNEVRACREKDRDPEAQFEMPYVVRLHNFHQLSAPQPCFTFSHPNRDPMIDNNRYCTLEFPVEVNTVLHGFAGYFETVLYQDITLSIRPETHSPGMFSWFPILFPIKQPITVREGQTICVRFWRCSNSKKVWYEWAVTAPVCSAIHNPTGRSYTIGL
T1 sequence (Q9BQA1 whole entry partner): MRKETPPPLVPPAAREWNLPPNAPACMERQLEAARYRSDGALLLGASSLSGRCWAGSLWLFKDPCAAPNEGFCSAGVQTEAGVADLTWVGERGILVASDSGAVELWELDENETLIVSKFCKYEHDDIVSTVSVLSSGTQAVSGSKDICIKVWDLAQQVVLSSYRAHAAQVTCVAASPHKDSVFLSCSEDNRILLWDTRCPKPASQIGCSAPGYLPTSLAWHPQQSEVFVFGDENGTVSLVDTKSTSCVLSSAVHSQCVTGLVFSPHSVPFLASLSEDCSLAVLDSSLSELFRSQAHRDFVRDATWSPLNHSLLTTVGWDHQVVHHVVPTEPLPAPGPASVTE

| SMILES | IC50 [1] | other results |
| --- | --- | --- |
| [2H]C([2H])([2H])n1ncc(-c2ccc3c(=O)[nH]nc(CN)c3c2)c1-c1c(F)cc2c(c1C#N)N1CCC[C@@H]1CO2 (single isomer, unassigned) [Compound 5-p2] | 4.91 nM | – |
| Cn1ncc(-c2ccc3c(=O)[nH]nc(CN)c3c2)c1-c1c(F)cc2c(c1C#N)O[C@@H]1CC[C@@H]1O2 (atropisomer, axis not shown; (P)) [Compound 1-p4, (P)-(2aR,8aS)-5-(4-(4-(aminomethyl)-1-oxo-1,2-dihydrophthalazin-6-yl)-1-methyl-1H-pyrazol-5-yl)-6-fluoro-1,2,2a,8a-tetrahydrobenzo[b]cyclobuta[e][1,4]dioxine-4-carbonitrile] | 5.48 nM | – |
| Cn1ncc(-c2ccc3c(=O)[nH]nc(CN)c3c2)c1-c1c(F)cc2c(c1C#N)OCCO2 (atropisomer, axis not shown) [Comparative example 1, reference compound] | – | IC50 (HCT116 MTAP-/- cells): 70.8 nM; Vd/F ([2]; read-out: Apparent volume of distribution V/F): 132 L/kg; AUC(0-t) ([2]; read-out: Area under the curve AUC0-t): 1720 ng·h/mL; CL/F ([2]; read-out: Clearance CL/F): 960 mL/min/kg; half-life ([2]; read-out: Half life T1/2 (converted)): 1.6 h; Cmax ([2]; read-out: Plasma concentration Cmax): 657 ng/mL |
| [2H]C([2H])([2H])n1ncc(-c2ccc3c(=O)[nH]nc(CN)c3c2)c1-c1c(F)c(Cl)c2c(c1C#N)N1CCC[C@H]1CO2 (atropisomer, axis not shown; (M)) [Compound 13-p1, (M)-(S)-8-(4-(4-(aminomethyl)-1-oxo-1,2-dihydrophthalazin-6-yl)-1-(methyl-d3)-1H-pyrazol-5-yl)-6-chloro-7-fluoro-2,3,3a,4-tetrahydro-1H-benzo[b]pyrrolo[1,2-d][1,4]oxazine-9-carbonitrile] | 2.8 nM | IC50 (HCT116 MTAP-/- cells): 15 nM |
| [2H]C([2H])([2H])n1ncc(-c2ccc3c(=O)[nH]nc(CN)c3c2)c1-c1c(F)cc2c(c1C#N)O[C@H]1CC[C@H]1O2 (single isomer, unassigned) [Compound 2-p3] | 5.31 nM | – |
| [2H]C([2H])([2H])n1ncc(-c2ccc3c(=O)[nH]nc(CN)c3c2)c1-c1c(F)cc2c(c1C#N)N1CCC[C@H]1CO2 (single isomer, unassigned) [Compound 8-p2] | 3.86 nM | – |
| [2H]C([2H])([2H])n1ncc(-c2ccc3c(=O)[nH]nc(CN)c3c2)c1-c1c(F)cc2c(c1C#N)N1CCC[C@@H]1CO2 (single isomer, unassigned) [Compound 5-p1] | 7.67 nM | – |
| [2H]C([2H])([2H])n1ncc(-c2ccc3c(=O)[nH]nc(CN)c3c2)c1-c1c(F)cc2c(c1C#N)OCC21CC1 [Compound 12, 6-(4-(4-(aminomethyl)-1-oxo-1,2-dihydrophthalazin-6-yl)-1-(methyl-d3)-1H-pyrazol-5-yl)-5-fluoro-2H-spiro[benzofuran-3,1'-cyclopropane]-7-carbonitrile] | 6.39 nM | – |
| [2H]C([2H])([2H])n1ncc(-c2ccc3c(=O)[nH]nc(CN)c3c2)c1-c1c(F)cc2c(c1C#N)O[C@@H]1CC[C@@H]1O2 (single isomer, unassigned) [Compound 2-p4] | 5.87 nM | – |

— patent EP4759817A1, “HETEROARYL COMPOUND, PREPARATION METHOD THEREFOR, AND USE THEREOF IN MEDICINE” (Jiangsu Hengrui Pharmaceuticals Co., Ltd., priority 2023, dated 2025)
